Experimental data as given in PMC5450702 (Toxins, 2017).

Tests used:
mice = test: CFA-induced inflammation and thermal hyperalgesia; type: in vivo, CD-1 mice
Method: All experiments were approved by the Animal Care and Use Committee of the Branch of the IBCh RAS (Pushchino, Russia) protocol number No. 492/16. Adult male CD-1 mice (weight 20–30 g; obtained from the Animal Breeding Facility Branch of Shemyakin-Ovchinnikov Institute of Bioorganic Chemistry, Russian Academy of Sciences, Pushchino, Russia Federation) were housed at room temperature (23 ± 2 °C) and subjected to a 12 h light–dark cycle with food and water available ad libitum. […] The significance of the data was determined by Analysis of variance (ANOVA) followed by Turkey’s post-hoc test. Data are presented as mean ± SEM.
Paw inflammation and thermal hyperalgesia was induced using Complete Freund’s Adjuvant (CFA) suspended in an oil/saline (1:1) emulsion. The mice were injected with 20 µL of CFA emulsion into the plantar surface of the left hind-paw. The control mice were injected with 20 µL of saline. […] Paw withdrawal latency was recorded using a hot plate (53 °C) 30 min after peptide or saline administration. […] Percent inflammation was calculated according to the formula ((Postdose paw diameter − Naive paw diameter)/(Predose paw diameter − Naive paw diameter)) × 100.

TRPA1 = settings: ref [53]; cited from earlier work
Text: Most probably, this peptide can potentiate and defunctionalize the TRPA1 receptor on sensory neurons or desensitize neurons. […] In our study, defunctionalization of ...

[1] = tested on: myocardial voltage gated Na^+ channel; set-up: method as in PMID 1686683; settings: ref [41]; cited from earlier work
[2] = ref [45], cited from earlier work
Method: The capability of defensins to interact with microbial membranes is determined by the shape of the molecules, the ratio of polar to hydrophobic residues on the peptide surface, and the total positive charge given through basic amino acids rather than by their individual primary structures. Usually, increasing the overall positive charge will increase the antimicrobial activity of AMPs due to the selective action of AMPs on negatively charged bacterial membranes. Indeed, the AMP cryptidin-4 (Crp4, charge +8) more effectively associates with negatively charged biological membranes than ne ...

sodium channels = settings: ref [11]; cited from earlier work
[3] = ref [11]; cited from earlier work

## CCC(=N\O)/C(C)=C/c1ccc(F)cc1 [A-967079]
mice; A-967079 20 mg/kg p.o. 1 h before Ueq 12-1 0.2 mg/kg i.v.
  effect of TRPA1 antagonist on Ueq 12-1 action, CFA-induced inflammation: completely blocked the effect of peptide Ueq 12-1
mice; A-967079 20 mg/kg p.o., Ueq 12-1 0.2 mg/kg i.v., n = 7–8
  effect of TRPA1 antagonist on Ueq 12-1 action, thermal hyperalgesia: completely blocked the effect of peptide Ueq 12-1

## C=C1C(=O)O[C@H]2[C@H]1CC/C(C)=C/CC[C@@]1(C)O[C@@H]21 [parthenolide]
TRPA1
  TRPA1 activity: partial agonist of TRPA1

## Anthopleurin-A: 49-residue polypeptide from Anthopleura xanthogrammica
[1]
  effect on myocardial voltage gated Na^+ channel: delayed inactivation

## cryptidin-4 (Crp4: mouse alpha-defensin 4 antimicrobial peptide (LRGLLCYCRKGHCKRGERVRGTCGIRFLYCCPRR; UniProt P28311 59-92, looked up)
[2]
  charge: +8
[2]; versus neutral membranes
  association with membranes: more effectively associates with negatively charged biological membranes than neutral membranes

## neurotoxin 2 (ATX-II)
Sodium channels
  effect on sodium channels gating: affect sodium channels gating
[3]
  antimicrobial properties: have antimicrobial properties
